Read-outs that look alike come from different tables or passages of the source.
System: SARS-CoV2/ZG/297-20
Format: cell-based
Conditions: Calu-3 cells infected with SARS-CoV-2, MOI 0.05, observed for 120 hours, level about equal to uninfected cells

COc1cc2ncc3c(c2cc1-c1cn(C)nc1C)n(-c1c(F)cncc1OC)c(=O)n3C (atropisomer, axis not shown; (Sa)) [NCE4, 8-(1,3-dimethyl-1H-pyrazol-4-yl)-1-(Sa)-(3-fluoro-5-methoxy-pyridin-4-yl)-7-methoxy-3-methyl-1,3-dihydro-imidazo[4,5-c]quinolin-2-one]
confluence of Calu-3 cells as compared to the infected cells (concentrations between 4 and 27 μM, FIG. 1): significant retainment or improvement of the confluence of the cells

COc1cc2ncc3c(c2cc1-c1cnn(C)c1)n(-c1ccc(C#N)cc1F)c(=O)n3C [NCE16, 3-fluoro-4-[7-methoxy-3-methyl-8-(1-methyl-1H-pyrazol-4-yl)-2-oxo-2,3-dihydro-imidazo[4,5-c]quinolin-1-yl]-benzonitrile]
confluence of Calu-3 cells as compared to the infected cells (concentrations between 16 and 81 μM, FIG. 2): significant retainment or improvement of the confluence of the cells

Reference: patent US20230226041A1, “COMPOUNDS FOR THE TREATMENT OF VIRAL INFECTIONS” (Merck Patent GmbH, priority 2020, published 2023)
